Measurements as given in patent publication US5519021A, “Benzoxazinones as inhibitors of HIV reverse transcriptase” (priority 1995, dated 1996).
Like-named read-outs stand apart in the source and are kept apart here.

How the values were obtained:
HIV-1 (wild-type) = assay: Cell spread assay (MT-4 T-lymphoid cells); assay type: cell-based; conditions: Human immunodeficiency virus 1, MT4, 72 h
Procedure: (§1) Inhibition of the spread of HIV in cell culture was measured according to Nunberg, J. H. et al., J. Virol. 65, 4887 (1991 ). In this assay, MT-4 T-lymphoid cells were infected with HIV-1 (wild-type, unless otherwise indicated) by using a predetermined inoculum, and cultures were incubated for 24 h. At this time, ≤1% of the cells were positive by indirect immunofluorescence. Cells were then extensively washed and distributed into 96-well culture dishes. Serial twofold dilutions of inhibitor were added to the wells, and cultures were continued for 3 additional days. At 4 days postinfection, 100% of the cells in control cultures were infected. HIV-1 p24 accumulation was directly correlated with virus spread. The cell culture inhibitory concentration was defined as the inhibitor concentration in nanomoles/liter which reduced the spread of infection by at least 95%, or CIC95.

A17 RT = target: T1, A17 RT (Human immunodeficiency virus type 1 group M subtype B, UniProt P04585, K690N/Y768C); assay: biochemical; set-up: species or system HIV-1
T1 construct: A17 RT was employed in the assay; made in house; host or cells: bacteria
Procedure: (§2) The assay measures the incorporation of tritiated deoxyguanosine monophosphate by recombinant HIV reverse transcriptase (HIV RTR) (or other RT) into acid-precipitable cDNA at the Km values of dGTP and poly r(C).cndot.oligo d(G)12-18.
(§3) The assays were carried out in 55 mM Tris (pH 8.2)-30 mM KCl-30 mM MgCl2 -1 mM dithiothreitol-20 μg of rC:dG 12-18 (Pharmacia) per ml-8 mM [^3 H]dGTP (New England Nuclear)-0.01% Triton X-100-50 mM ethylene glycol-bis(β-amino-ethyl ether)-N,N,N',N'-tetraacetic acid (EGTA)-1 mg of bovine serum albumin per ml. After 60 min of incubation at 37° C., acid-precipitable material was collected onto glass fiber filters by using a semiautomatic cell harvester. Bacterial cell extracts containing RT were diluted to within the linear range of the assay, and activity was determined in the presence and absence of inhibitor. Purified HIV-1 RT heterodimer produced in E. coli also served as a control.
For the double mutant assay (dm), A17 RT was employed in the assay. […] Results are measured as IC50 dm in nanomoles/liter.

[1] = target: T2, recombinant HIV reverse transcriptase (HIV RTR) (Human immunodeficiency virus type 1 group M subtype B, UniProt P04585); assay: Reverse transcriptase assay (wild type); assay type: biochemical, HIV-1
T2 construct: recombinant HIV reverse transcriptase (HIV RTR); made in house; host or cells: E. coli
Procedure: as §2, §3

[2] = Protein binding (HPLC method); assay type: in vitro ADME; conditions: Normal Human Plasma (HPLC Method)
From the text: Protein Binding: 98.0% Normal Human Plasma (HPLC Method)

HIV-1 DM (double mutant) = assay: Cell spread assay, double mutant (DM); assay type: cell-based; conditions: MT-4 cells
Procedure: as §1
(§4) *Mutants K103N and Y181C are drugresistant HIV1 reverse transcriptases. D
is the double mutant, as discussed in the reverse transcriptase assay. RT

[3] = target: T3, reverse transcriptase of HIV2 (Human immunodeficiency virus type 2 subtype A, UniProt P04584); assay: Reverse transcriptase assay, RT-2; assay type: biochemical
T3 construct: is the reverse transcriptase of HIV2
T3 sequence (P04584 613-1171): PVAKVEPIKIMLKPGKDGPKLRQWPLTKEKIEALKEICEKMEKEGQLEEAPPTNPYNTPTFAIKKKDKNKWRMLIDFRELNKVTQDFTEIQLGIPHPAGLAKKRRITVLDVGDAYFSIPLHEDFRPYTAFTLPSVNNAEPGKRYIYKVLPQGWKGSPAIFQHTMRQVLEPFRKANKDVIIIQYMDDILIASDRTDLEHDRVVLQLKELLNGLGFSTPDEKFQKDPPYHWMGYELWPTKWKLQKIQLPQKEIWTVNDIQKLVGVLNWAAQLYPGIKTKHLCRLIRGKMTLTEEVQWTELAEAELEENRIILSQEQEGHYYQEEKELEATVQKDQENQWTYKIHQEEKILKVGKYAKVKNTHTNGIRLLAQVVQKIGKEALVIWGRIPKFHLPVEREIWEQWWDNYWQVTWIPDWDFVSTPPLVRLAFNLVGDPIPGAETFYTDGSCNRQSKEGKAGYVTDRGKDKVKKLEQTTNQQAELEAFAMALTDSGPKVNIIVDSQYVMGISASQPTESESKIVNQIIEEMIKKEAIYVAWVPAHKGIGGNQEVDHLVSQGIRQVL
T3 sequence (P04584 613-1051): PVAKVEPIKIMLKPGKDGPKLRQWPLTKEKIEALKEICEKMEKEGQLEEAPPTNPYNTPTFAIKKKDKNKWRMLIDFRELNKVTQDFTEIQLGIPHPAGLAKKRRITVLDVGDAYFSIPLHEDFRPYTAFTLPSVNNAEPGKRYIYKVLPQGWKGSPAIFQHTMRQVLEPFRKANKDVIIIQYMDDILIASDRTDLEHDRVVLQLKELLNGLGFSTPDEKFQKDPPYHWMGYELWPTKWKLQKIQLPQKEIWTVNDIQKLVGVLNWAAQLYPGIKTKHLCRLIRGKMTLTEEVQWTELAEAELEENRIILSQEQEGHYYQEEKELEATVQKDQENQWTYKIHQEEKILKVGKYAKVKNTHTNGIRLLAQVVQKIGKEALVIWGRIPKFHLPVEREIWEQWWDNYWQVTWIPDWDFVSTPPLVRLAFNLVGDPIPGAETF
Procedure: as §2
as §3, with “control. Results are determined as inhibitor concentration to give 50% inhibition (IC50 wt), in nanomoles/liter.” for “control.”
is the reverse transcriptase of HIV2.

HIV-1 K103N = assay: Cell spread assay, K103N mutant; assay type: cell-based; conditions: MT-4 cells
Procedure: as §1, §4

HIV-1 Y181C = assay: Cell spread assay, Y181C mutant; assay type: cell-based; conditions: MT-4 cells
Procedure: as §1, §4

[4] = Table I, concentration reducing spread of infection by at least 95%, MT-4 cells, read-out: CIC*95
[5] = Table I, wild-type RT, read-out: IC*50 wt

Molecule O=C1Nc2ccc(Cl)cc2C(C#Cc2ccccc2)(C(F)(F)F)O1 (racemic) [12(+/-), (±) 6-Chloro-4-phenylethynyl-4-trifluoromethyl-1,4-dihydro-2H-3,1-benzoxazin-2-one] has an IC95 (HIV-1 (wild-type); [4]) of 0.025 µM, an IC50 (A17 RT) of 280 nM and an IC50 [1, 5] of 12 nM.

For CCCC1(C2CC2)OC(=O)Nc2ccc(Cl)cc21 (stereo not drawn) [Compound 28], the IC95 (HIV-1 (wild-type); [4]) was 1.5 µM, the IC50 (A17 RT) was 114000 nM and the IC50 [1, 5] was 307 nM.

For O=C1Nc2ccc(Cl)cc2[C@@](C#CC2CC2)(C(F)(F)F)O1 [37.2(-), (-) 6-Chloro-4-cyclopropylethynyl-4-trifluoromethyl-1,4-dihydro-2H-3,1-benzoxazin-2-one], the fraction unbound [2] was 0.02, the IC95 (HIV-1 (wild-type); WT virus, MT-4 cells, N = 2, read-out: CIC95 (μM) WT) was < 0.006 µM and the “CIC95 (μM) DM” value (HIV-1 DM (double mutant)) was 0.400 µM. For the same molecule, the IC50 [3] was 80800 nM, the “CIC95 (μM) K103N” value (HIV-1 K103N) was 0.100 µM and the “CIC95 (μM) Y181C” value (HIV-1 Y181C) was < 0.025 µM.

Molecule COCC#CC1(C(F)(F)F)OC(=O)Nc2ccc(Cl)cc21 (stereo not drawn) [Compound 18] has an IC95 (HIV-1 (wild-type); [4]) of 0.05 µM, an IC50 (A17 RT) of 2650 nM and an IC50 [1, 5] of 15 nM.

In the case of COc1ccccc1C#CC1(C(F)(F)F)OC(=O)Nc2ccc(Cl)cc21 (stereo not drawn) [Compound 11], the IC95 (HIV-1 (wild-type); [4]) is reported as 0.006 µM, the IC50 (A17 RT) is reported as 270 nM and the IC50 [1, 5] is reported as 16 nM.

Work on CN(C)CC#CC1(C(F)(F)F)OC(=O)Nc2ccc(Cl)cc21 (stereo not drawn) [Compound 24] yielded an IC95 (HIV-1 (wild-type); [4]) of 0.1 µM, an IC50 (A17 RT) of 1950 nM and an IC50 [1, 5] of 43 nM.

For O=C1Nc2ccc(Cl)cc2[C@](C#Cc2ccccc2)(C(F)(F)F)O1 [3(+), (+) 6-Chloro-4-phenylethynyl-4-trifluoromethyl 1,4-dihydro-2H-3,1-benzoxazin-2-one], the IC95 (HIV-1 (wild-type); [4]) was > 0.2 µM, the IC50 (A17 RT) was 37000 nM and the IC50 [1] was 2900 nM.

Work on N#Cc1ccccc1C#CC1(C(F)(F)F)OC(=O)Nc2ccc(Cl)cc21 (racemic) [Compound 2, (+/-) 6-Chloro-4-(2-cyanophenyl)ethynyl-4-(1,1,1-trifluoromethyl)-1,4-dihydro-2H-3,1-benzoxazin-2-one] yielded an IC95 (HIV-1 (wild-type); [4]) of 0.006 µM, an IC50 (A17 RT) of 480 nM and an IC50 [1, 5] of 25 nM.

Work on COC(=O)/C=C(/OC)C1(C(F)(F)F)OC(=O)Nc2ccc(Cl)cc21 (stereo not drawn) [Compound 13] yielded an IC50 (A17 RT) of 100000 nM and an IC50 [1, 5] of 390 nM.

With C=CCCC1(C(F)(F)F)OC(=O)Nc2ccc(Cl)cc21 (racemic) [Compound 15, (+/-) 4-(1,1,1,-trifluoromethyl)-4-(1-buten-4-yl)-6-chloro-1,4-dihydro-2H-3,1-benzoxazin-2-one] the IC50 (A17 RT) was > 100000 nM and the IC50 [1, 5] was 29 nM.

For C#CC1(c2ccccc2)OC(=O)Nc2ccc(Cl)cc21 (stereo not drawn) [Compound 35], the IC50 (A17 RT) was > 300000 nM and the IC50 [1, 5] was 650 nM.

With O=C1Nc2ccc(Cl)cc2[C@@](C#Cc2ccccc2)(C(F)(F)F)O1 [4(-), (-) 6-Chloro-4-phenylethynyl-4-trifluoromethyl-1,4-dihydro-2H-3,1-benzoxazin-2-one] the IC95 (HIV-1 (wild-type); read-out: CIC*95) was 0.012 µM, the IC50 (A17 RT) was 69 nM and the IC50 [1] was 8.6 nM.

In the case of CCC1(c2ccccc2)OC(=S)Nc2ccc(Cl)cc21 (stereo not drawn) [Compound 44], the IC95 (HIV-1 (wild-type); Table II, concentration reducing spread of infection by at least 95%, MT-4 cells, read-out: CIC*95) is reported as 0.1 µM, the IC50 (A17 RT) is reported as > 300000 nM and the IC50 ([1]; Table II, wild-type RT, read-out: IC*50 wt) is reported as 15 nM.

With CCCCC1(C(F)(F)F)OC(=O)Nc2ccc(Cl)cc21 (stereo not drawn) [Compound 19] the IC50 (A17 RT) was 25000 nM and the IC50 [1, 5] was 24 nM.

For CCCC1(C(C)(C)C)OC(=O)Nc2ccc(Cl)cc21 (stereo not drawn) [Compound 37], the IC50 (A17 RT) was > 100000 nM and the IC50 [1, 5] was 5300 nM.

Work on O=C1Nc2ccc(Cl)cc2C(C#Cc2ccccc2[N+](=O)[O-])(C(F)(F)F)O1 (stereo not drawn) [Compound 6] yielded an IC50 (A17 RT) of 19000 nM and an IC50 [1, 5] of 1700 nM.
